{
  "source": "paper PMC3986099",
  "about": "“Development of a Radioiodinated Triazolopyrimidine Probe for Nuclear Medical Imaging of Fatty Acid Binding Protein 4” (PLoS ONE, 2014)",
  "assay": "Serum protein binding by rapid equilibrium dialysis",
  "assay_type": "in vitro ADME",
  "conditions": "mouse plasma, 37 °C, 4 hr",
  "experimental": "The serum protein binding ratio of [^125I]TAP1 was measured using rapid equilibrium dialysis (RED) devices (Thermo Fisher Scientific K.K.) following the manufacturer's procedures. Briefly, [^125I]TAP1 (0.02 MBq, 0.02 ml) and mouse plasma (0.3 ml) were mixed and placed to the sample chamber and 0.5 ml PBS (-) was placed in the RED device buffer chamber. After incubation at 37 °C for 4 hr, 0.05 ml of the samples were obtained from each chamber. The binding ratios were calculated as: (sample chamber radioactivity)-(buffer chamber radioactivity)/(sample chamber radioactivity) x 100 (%).",
  "data": [
    {"smiles": "O=c1cc(COc2cccc([125I])c2)[nH]c2nc(-c3ccccc3)nn12", "note": "[[^125I]TAP1]", "values": [
      {"measurement": "percentage bound to serum proteins", "result": "more than 99%"}
    ]}
  ]
}
